Experiments:
[1] = target: T1, ATP-dependent Clp protease proteolytic subunit, mitochondrial (Homo sapiens, UniProt Q16740); experiment: Agonist activity at human CLpP by measuring alpha-casein hydrolysis using alpha-casein as substrate preincubated for 10 mins followed by substrate addition and measured after 120 mins by Coomassie brilliant blue staining based SDS-PAGE assay
MOLM-13 = experiment: Antiproliferative activity against human MOLM-13 cells assessed as inhibition of cell growth at 20 uM by CCK-8 assay relative to control; type: functional
[2] = target: T1, ATP-dependent Clp protease proteolytic subunit, mitochondrial; experiment: Agonist activity at human CLpP by measuring alpha-casein hydrolysis using alpha-casein as substrate by FITC staining based assay
[3] = target: T1, ATP-dependent Clp protease proteolytic subunit, mitochondrial; experiment: Binding affinity to human CLpP assessed as change in melting temperature by DSF assay; conditions: filed as agonist
NB-4 = experiment: Inhibition of colony formation in human NB4 cells incubated for 14 days; type: functional, cell-based; conditions: time 14.0 day

T1 sequence (Q16740 whole entry): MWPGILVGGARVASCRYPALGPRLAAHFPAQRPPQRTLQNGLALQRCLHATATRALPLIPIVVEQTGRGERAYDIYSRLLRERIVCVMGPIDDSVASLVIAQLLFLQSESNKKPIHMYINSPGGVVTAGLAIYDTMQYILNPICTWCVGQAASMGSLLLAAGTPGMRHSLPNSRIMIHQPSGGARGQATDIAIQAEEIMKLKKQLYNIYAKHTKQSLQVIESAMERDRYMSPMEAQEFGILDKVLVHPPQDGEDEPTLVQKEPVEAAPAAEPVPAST

In the case of CC[C@H](C)[C@H]1C(=O)N(Cc2cccc3ccccc23)C[C@@H]2N(C(=O)NCc3ccc(C(F)(F)F)cc3)CCC(=O)N12, the EC50 [1] is reported as 7.7 µM and the inhibition at 20 µM (MOLM-13) is reported as 95.3%.
With CC[C@H](C)[C@H]1C(=O)N(Cc2cccc3ccccc23)C[C@@H]2N(C(=O)NCc3ccc(I)cc3)CCC(=O)N12 the EC50 [1] was 5.2 µM and the inhibition at 20 µM (MOLM-13) was 97.5%.
Molecule CC[C@H](C)[C@H]1C(=O)N(Cc2cccc3ccccc23)C[C@@H]2N(C(=O)NCc3ccc(F)c(F)c3)CCC(=O)N12 has an EC50 [1] of 3.7 µM and an inhibition at 20 µM (MOLM-13) of 99.6%.
CC[C@H](C)[C@H]1C(=O)N(Cc2cccc3ccccc23)C[C@@H]2N(C(=O)NCc3ccc(C(C)C)cc3)CCC(=O)N12 showed an EC50 [1] greater than 25 µM and an inhibition at 20 µM (MOLM-13) of 97.7%.
CC[C@H](C)[C@H]1C(=O)N(Cc2cccc3ccccc23)C[C@@H]2N(C(=O)NCc3cc(F)c(F)c(F)c3)CCC(=O)N12 gave an EC50 [1] of 10.9 µM and an inhibition at 20 µM (MOLM-13) of 99.5%.
Molecule CC[C@H](C)[C@H]1C(=O)N(Cc2cccc3ccccc23)C[C@@H]2N(C(=O)NCc3ccc(Br)cc3)CCC(=O)N12 has an EC50 [1] of 2.8 µM, an inhibition at 20 µM (MOLM-13) of 99.7% and an EC50 [2] of 1.19 µM. The ΔTm [3] was 16.4 °C and the inhibition (NB-4) was “Dose-Dependent Effect”.
For O=C1[C@H](Cc2ccc(O)cc2)N2C(=O)CCN(C(=O)NCc3ccccc3)[C@H]2CN1Cc1cccc2ccccc12, the EC50 [1] was 7.1 µM and the inhibition at 20 µM (MOLM-13) was 86.9%.
Work on CC[C@H](C)[C@H]1C(=O)N(Cc2cccc3ccccc23)C[C@@H]2N(C(=O)NCc3ccc(F)c(Br)c3)CCC(=O)N12 yielded an EC50 [1] of 3.6 µM and an inhibition at 20 µM (MOLM-13) of 97.6%.
CC[C@H](C)[C@H]1C(=O)N(Cc2cccc3ccccc23)C[C@@H]2N(C(=O)NCc3ccc(F)c(Cl)c3)CCC(=O)N12 was tested, and the EC50 [1] was 3.4 µM and the inhibition at 20 µM (MOLM-13) was 97.9%.
With CCCCNC(=O)N1CCC(=O)N2[C@@H]([C@@H](C)CC)C(=O)N(Cc3cccc4ccccc34)C[C@H]12 the EC50 [1] was 4.6 µM and the inhibition at 20 µM (MOLM-13) was 23.6%.
With CSCC[C@H]1C(=O)N(Cc2cccc3ccccc23)C[C@@H]2N(C(=O)NCc3ccccc3)CCC(=O)N21 the EC50 [1] was 15.9 µM and the inhibition at 20 µM (MOLM-13) was 24.4%.
With CC[C@H](C)[C@H]1C(=O)N(Cc2cccc3ccccc23)C[C@@H]2N(C(=O)NCc3ccc(Br)cc3F)CCC(=O)N12 the EC50 [1] was 5.6 µM and the inhibition at 20 µM (MOLM-13) was 98%.
Molecule CC[C@H](C)[C@H]1C(=O)N(Cc2ccc3ccccc3c2)C[C@@H]2N(C(=O)NCc3ccc(Br)cc3)CCC(=O)N12 has an EC50 [1] greater than 25 µM and an inhibition at 20 µM (MOLM-13) of 13.2%.
In the case of CC[C@H](C)[C@H]1C(=O)N(Cc2cccc3ccccc23)C[C@@H]2N(C(=O)NCc3ccc(Cl)cc3)CCC(=O)N12, the EC50 [1] is reported as 2.7 µM and the inhibition at 20 µM (MOLM-13) is reported as 98.3%.
CC[C@H](C)[C@H]1C(=O)N(Cc2cccc3ccccc23)C[C@@H]2N(C(=O)CCc3ccccc3)CCC(=O)N12 gave an EC50 [1] of 14.1 µM and an inhibition at 20 µM (MOLM-13) of 92%.
Work on CC[C@H](C)[C@H]1C(=O)N(Cc2cccc3ccccc23)C[C@@H]2N(C(=O)NCC3CCCCC3)CCC(=O)N12 yielded an EC50 [1] of 11.2 µM and an inhibition at 20 µM (MOLM-13) of 99.5%.
For CC[C@H](C)[C@H]1C(=O)N(Cc2cccc3ccccc23)C[C@@H]2N(C(=O)NCc3c(F)c(F)c(F)c(F)c3F)CCC(=O)N12, the EC50 [1] was 15.9 µM and the inhibition at 20 µM (MOLM-13) was 99.9%.
For CC[C@H](C)[C@H]1C(=O)N(Cc2cccc3ccccc23)C[C@@H]2N(C(=O)NC(C)(C)c3ccccc3)CCC(=O)N12, the EC50 [1] was 4.3 µM and the inhibition at 20 µM (MOLM-13) was 46.3%.
Molecule CC[C@H](C)[C@H]1C(=O)N(Cc2cccc3ccccc23)C[C@@H]2N(C(=O)NCc3ccc(OC)c(OC)c3)CCC(=O)N12 has an EC50 [1] greater than 25 µM and an inhibition at 20 µM (MOLM-13) of 35.2%.
CC[C@H](C)[C@H]1C(=O)N(Cc2cccc3ccccc23)C[C@@H]2N(C(=O)NCc3ccc4ccccc4c3)CCC(=O)N12 was tested, and the EC50 [1] was 10.6 µM and the inhibition at 20 µM (MOLM-13) was 99.3%.
Molecule CC[C@H](C)[C@H]1C(=O)N(Cc2cccc3ccccc23)C[C@@H]2N(C(=O)NCc3cc(Br)cc(Br)c3)CCC(=O)N12 has an EC50 [1] greater than 25 µM and an inhibition at 20 µM (MOLM-13) of 98.4%.
For NC(=O)C[C@H]1C(=O)N(Cc2cccc3ccccc23)C[C@@H]2N(C(=O)NCc3ccccc3)CCC(=O)N21, the EC50 [1] was greater than 25 µM and the inhibition at 20 µM (MOLM-13) was 5.5%.
With CC[C@H](C)[C@H]1C(=O)N(Cc2cccc3ccccc23)C[C@@H]2N(C(=O)NCc3ccc(OC)cc3)CCC(=O)N12 the EC50 [1] was 3.4 µM and the inhibition at 20 µM (MOLM-13) was 99.4%.
Molecule CC[C@H](C)[C@H]1C(=O)N(Cc2cccc3ccccc23)C[C@@H]2N(C(=O)NCc3c(F)cc(Br)cc3F)CCC(=O)N12 has an EC50 [1] greater than 25 µM and an inhibition at 20 µM (MOLM-13) of 99.1%.
CC[C@H](C)[C@H]1C(=O)N(Cc2ccc(F)c3ccccc23)C[C@@H]2N(C(=O)NCc3ccc(Br)cc3)CCC(=O)N12 gave an EC50 [1] of 3.8 µM and an inhibition at 20 µM (MOLM-13) of 97.7%.
With O=C1[C@H](Cc2ccccc2)N2C(=O)CCN(C(=O)NCc3ccccc3)[C@H]2CN1Cc1cccc2ccccc12 the EC50 [1] was 14.4 µM and the inhibition at 20 µM (MOLM-13) was 34%.
CC[C@H](C)[C@H]1C(=O)N(Cc2cccc3ccccc23)C[C@@H]2N(C(=O)NCc3ccc(F)c(OC)c3)CCC(=O)N12 was tested, and the EC50 [1] was 5.4 µM and the inhibition at 20 µM (MOLM-13) was 98.1%.
CC[C@H](C)[C@H]1C(=O)N(Cc2cccc3ccccc23)C[C@@H]2N(C(=O)NCc3ccc(F)cc3Cl)CCC(=O)N12 was tested, and the EC50 [1] was 8.7 µM and the inhibition at 20 µM (MOLM-13) was 99.8%.
For CC[C@H](C)[C@H]1C(=O)N(Cc2cccc3ccccc23)C[C@@H]2N(C(=O)NCc3ccc(C)cc3)CCC(=O)N12, the EC50 [1] was 3.3 µM and the inhibition at 20 µM (MOLM-13) was 99.4%.
In the case of CC[C@H](C)[C@H]1C(=O)N(Cc2cccc3ccccc23)C[C@@H]2N(C(=O)NCc3ccccc3)CCC(=O)N12, the EC50 [1] is reported as 7.8 µM and the inhibition at 20 µM (MOLM-13) is reported as 97.9%.
Molecule CC(C)C[C@H]1C(=O)N(Cc2cccc3ccccc23)C[C@@H]2N(C(=O)NCc3ccccc3)CCC(=O)N21 has an EC50 [1] of 7.2 µM and an inhibition at 20 µM (MOLM-13) of 82.5%.
Molecule CC[C@H](C)[C@H]1C(=O)N(Cc2cccc3ccccc23)C[C@@H]2N(C(=O)NCc3ccc4c(c3)OCO4)CCC(=O)N12 has an EC50 [1] of 5.8 µM and an inhibition at 20 µM (MOLM-13) of 78.6%.
For CC[C@H](C)[C@H]1C(=O)N(Cc2cccc3ccccc23)C[C@@H]2N(C(=O)NCc3cc(F)c(Br)c(F)c3)CCC(=O)N12, the EC50 [1] was 3.6 µM and the inhibition at 20 µM (MOLM-13) was 99.1%.
In the case of CC[C@H](C)[C@H]1C(=O)N(Cc2cccc3ccccc23)C[C@@H]2N(C(=O)CCc3ccc(F)cc3)CCC(=O)N12, the EC50 [1] is reported as 10.4 µM and the inhibition at 20 µM (MOLM-13) is reported as 58.2%.
Molecule CC[C@H](C)[C@H]1C(=O)N(Cc2cccc3c2OCO3)C[C@@H]2N(C(=O)NCc3ccc(Br)cc3)CCC(=O)N12 has an EC50 [1] of 14.9 µM and an inhibition at 20 µM (MOLM-13) of 44.4%.
O=C1[C@H](Cc2cnc[nH]2)N2C(=O)CCN(C(=O)NCc3ccccc3)[C@H]2CN1Cc1cccc2ccccc12 showed an EC50 [1] of 22.8 µM and an inhibition at 20 µM (MOLM-13) of 13.4%.
CC[C@H](C)[C@H]1C(=O)N(Cc2cccc3ccccc23)C[C@@H]2N(C(=O)NCC3CCOCC3)CCC(=O)N12 was tested, and the EC50 [1] was greater than 25 µM and the inhibition at 20 µM (MOLM-13) was 6.3%.
